Assay results from US20060167229A1, “Biologically active peptide conjugates” (priority 2002, published 2006).
Marks after values point to notes of the source that are not given here. Ends that are not written are not given here.

Assays:
T lymphocyte = T lymphocyte transformation test (ConA-stimulated spleen cells of treated mice, MTT); assay type: in vivo, BALB/c mice; details: for X ± SD (stimulation index): healthy mice, saline 1.3 ± 0.1; for effect on T lymphocyte transformation (summary): statistically significant difference from saline in any of the dosage groups 0.5-500 μg/kg/day
Procedure: The above substances were all dissolved in 0.5 ml saline and injected intraperitoneal (i.p.) for 15 continuous days, once per day.
Ten mice per group. The day after the last test substance administration, the mice were sacrificed by cervical dislocation. The spleen was isolated aseptically and manually dispersed in cold D-Hank's solution using an injection needle. The dispersed cell suspension was further sieved through a 100 gauge 150 μm diameter stainless steel sieve. After centrifugation at 200 g for 10 minutes, the supernatant was discarded. The cell pellet was re-suspended in 10 volume of Tris-NH4Cl buffer and then kept standing still for 10 minutes at room temperature. The suspended cells were collected by centrifugation at 150 g for 10 minutes. The cells were washed 2-4 times with cold D-Hank's solution by re-suspending and collecting by centrifugation with condition as described above. The washed cells were then diluted to the desired cell densities by RPMI-1640 culture medium, containing 10% fetal bovine serum.
(§1) Spleen cells of density 1×10^6/ml were placed onto a 96 wells cell culture plate, 100 μL/well, three parallel wells each of the assay sample and control sample per mouse. To the assay wells, 100 μl/well ConA of 100 μg/ml in RPMI-1640 was added, and […] plain RPMI-1640 was used for the controls. The cells were incubated for 66 hrs at 37° C., 5% CO2. The cells were then pelleted by centrifugation at 150 g for 10 minutes.
50 μl/well MTT of 1 mg/ml in RPMI-1640 was added to the cell pellet and the cells re-suspended by shaking for 2 minutes. The incubation was continued for 4 hours. The supernatant was discarded after centrifugation at 150 g for 10 minutes. 120 μl 40 mM HCl-2-propanol was added to the cell pellet and shaken for 3 minutes. […]
Each mouse formed three assay wells and three control wells. The Stimulation Index (SI) of each mouse was obtained by first deriving the average OD of the three parallel wells, then dividing the value of the assay wells by the control wells.

IL-2 = assay: T lymphocyte IL-2 secretion test (HT-2 cell bioassay of ConA supernatant); assay type: in vivo, BALB/c mice; details: for activity of T lymphocyte in secreting IL-2, X ± SD (IU): healthy mice; for effect on the secretion of interleukin-2 (IL-2) by T lymphocytes (summary): statistically significant difference from saline in any of the dosage groups 0.5-500 μg/kg/day
Procedure: as §1
HT-2 cells at log phase were collected by centrifugation at 150 g for 10 minutes, and washed three times with cold Hank's solution by re-suspension and centrifugation. The collected HT-2 cells were re-suspended in RPMI-1640 and incubated at 37° C., 5% CO2 for 30 minutes. The cells were further washed twice with RPMI-1640 by re-suspension and centrifugation, and re-suspended to final concentration of 2×10^5/ml with RPMI-1640.
rIL-2 was diluted to the following concentration with RPMI-1640: 500 IU/ml, 250 IU/ml, 125 IU/ml, 62.5 IU/ml, 31.25 IU/ml, and […].
The plate was incubated at 37° C., 5% CO2 for 68 hours, then centrifuged at 150 g for 15 minutes and the supernatant removed. 100 μl 0.5 mg/ml MTT in RPMI-1640 without phenolsulfonphthalein was added into each well. After shaking for 3-4 minutes to re-suspend the cells, continue to incubate for another 4 hours. Samples were then centrifuged at 150 g for 15 minutes and the supernatant was removed. To each well, 120 μl 40 mM HCl-2-propanol was added, mixed for 3-4 minutes and OD analyzed at 570 nm, referenced at 630 nm with an ELISA plate reader.
The average OD of the three parallel wells of each dilution was taken and plotted against concentration on a semi-log paper, concentration on the X-axis. The concentration at 50% OD saturation was obtained for both the testing supernatant and rIL-2.

[1] = test system: Sheep red blood cells (SRBC); assay: Humoral immunity (SRBC hemolysis index) of mice bearing transplanted B16 melanoma; assay type: in vivo, C57BL/6 mice; set-up: key: index = (OD540 sample ÷ reference OD540) × 500; details: saline 19.0 ± 9.1
Procedure: Intraperitoneal injection, once per day. […] Treatment of all groups with testing substance lasted for 30 days or until the animal died unless otherwise specified.
Stock B16 mouse melanoma cells were incubated in DMEM/F12 medium supplemented with 10% fetal bovine serum, 37° C./5% CO2 for 72 hrs, then washed 3-4 times with Hank's solution. The cell concentration was adjusted to 1×10^5 per ml with Hank's solution and 0.1 ml of the cell suspension was injected via the tail vein into the testing mice to generate the B16 melanoma bearing animal model. Treatment with test substance started as described in section Method 1.
Sheep red blood cells (SRBC) were prepared by collecting blood from the cervical vein and put into a sterile flask with glass beads. The flask was shaken for 3 minutes and the blood then mixed with Alsever solution (glucose 2.05 g, NaCl 0.4 g, […] 0.8 g, adjust to 100 ml with distilled water) and stored at 4° C. Immediately before use, samples were centrifuged at 130 g, 5 minutes to collect the SRBC. The cells were washed two times by re-suspension and centrifugation in normal saline. Then the cell pellet was collected by centrifugation at 180 g for 10 minutes and re-suspended in saline to make the final working SRBC suspension, 2% (v/v).
Complement was prepared by adding 10 volumes of fresh Cavy serum into one volume centrifuge packed SRBC, and then gently shaken for 30 minutes at 4° C. The SRBC was removed by centrifugation at 200 g for 10 minutes. 10 volumes of normal saline were added to obtain the working complement solution.
On the testing animals, on the 27th date of test substance treatment, 0.2 ml of the working SRBC cell suspension was injected into each animal to raise antibody. On the day after the last test substance administration, blood was collected from the eye canthus and left at room temperature for one hour for serum exudation. After centrifugation at 200 g for 10 minutes, the collected serum was diluted by 500 times with normal saline.
To 1 ml diluted mouse serum of each mouse, 0.5 ml SRBC suspension was added. Ice cold. Then 1 ml working complement solution was added and incubated at 37° C. water bath for 10 minutes. Reactions were terminated by ice cold. Samples were then centrifuged at 200 g for 10 minutes to obtain the supernatant.
To 1 ml of this supernatant, 3 ml Drabkin solution was added and left at room temperature for 10 minutes. OD540 nm was obtained.
Reference OD540 nm was obtained by mixing 0.25 ml SRBC suspension with Drabkin solution to 4 ml and placed at room temperature for 10 minutes before OD540 nm was taken. Hemolysis index=(OD540 nm of test sample÷reference OD540 nm)×500 6.2 After the Humoral Immunity Study, the Mice were Killed by Cervical Vertebra Dislocation. Postmortem Examination of the Animals was Performed. The Pathological Changes were Recorded, and the Numbers of Melanoma Lung Metastasis Foci Were Counted. Results

[2] = peptide 5 μg/kg/day i.p. 15 days (IFN-γ, IL-2 3×10^5 IU/kg/day)
[3] = peptide 50 μg/kg/day i.p. 15 days (IFN-γ, IL-2 3×10^5 IU/kg/day)
[4] = peptide 50 μg/kg/day i.p. 15 days (IFN-γ, IL-2 3×10^5 IU/kg/day), saline 39 ± 10
[5] = peptide 0.5 μg/kg/day i.p. 15 days (IFN-γ, IL-2 3×10^5 IU/kg/day)
[6] = peptide 500 μg/kg/day i.p. 15 days (IFN-γ, IL-2 3×10^5 IU/kg/day)
[7] = peptide 5 μg/kg/day i.p. 15 days (IFN-γ, IL-2 3×10^5 IU/kg/day), saline 37 ± 9
[8] = peptide 0.51 g/kg/day (so in the source) i.p. 15 days (IFN-γ, IL-2 3×10^5 IU/kg/day), saline 38 ± 13
[9] = peptide 500 μg/kg/day i.p. 15 days (IFN-γ, IL-2 3×10^5 IU/kg/day), saline 39 ± 10

| Substance | X ± SD (stimulation index) (T lymphocyte; [2]) | X ± SD (stimulation index) (T lymphocyte; [3]) | effect on T lymphocyte transformation (summary) (T lymphocyte) | activity of T lymphocyte in secreting IL-2, X ± SD (IU) (IL-2; [4]) | effect on the secretion of interleukin-2 (IL-2) by T lymphocytes (summary) (IL-2) | Hemolysis index ([1]; dose 0.5 μg/kg) | Hemolysis index ([1]; dose 5 μg/kg) | Hemolysis index ([1]; dose 50 μg/kg) | Hemolysis index ([1]; dose 500 μg/kg) | X ± SD (stimulation index) (T lymphocyte; [5]) | X ± SD (stimulation index) (T lymphocyte; [6]) | activity of T lymphocyte in secreting IL-2, X ± SD (IU) (IL-2; [7]) | activity of T lymphocyte in secreting IL-2, X ± SD (IU) (IL-2; [8]) | activity of T lymphocyte in secreting IL-2, X ± SD (IU) (IL-2; [9]) |
| --- | --- | --- | --- | --- | --- | --- | --- | --- | --- | --- | --- | --- | --- | --- |
| FNFVPP [CMS003] | 1.6 ± 0.2 | 2.2 ± 0.5*^@^ | enhance | 86 ± 9*^ IU | enhance | 61.6 ± 26.9*^$ | 37.2 ± 15.9*^$ | 38.7 ± 13.5*^$ | 35.9 ± 13.0*^$ |  |  |  |  |  |
| IGMESAGIHETTY [CMS016] |  |  |  |  |  |  |  |  | 43.3 ± 29.9 |  |  |  |  |  |
| KAVGHLDDLPGAL [CMS008] |  |  | enhance |  |  | 42.7 ± 18.4*^$ | 38.9 ± 12.0*^$ | 37.1 ± 16.7*^$ | 50.1 ± 17.8*^$ | 1.7 ± 0.3 | 1.7 ± 0.1 |  |  |  |
| LGMQACGIHETTY [CMS012] |  |  | enhance |  | enhance |  |  |  |  |  | 1.6 ± 0.2 | 65 ± 16 | 59 ± 13 IU |  |
| LRVAPQQHPTL [CMS009] |  |  | enhance |  | enhance |  |  |  |  |  | 1.7 ± 0.2 |  |  | 114 ± 13*^@^ IU |
| PTTKTYFPHF [CMS001] | 1.7 ± 0.2 | 2.2 ± 0.5*^@^ | enhance | 60 ± 10 IU | enhance | 51.0 ± 16.2*^$ | 41.3 ± 17.7*^$ | 45.0 ± 31.9*^$ | 36.0 ± 10.2*^$ |  |  |  |  |  |
| Phe Val Asn Asp (FVND; listed as Sus scrofa) [CMS035] |  |  |  |  |  |  | 38.9 ± 21.2*^$ | 44.7 ± 22.7*^$ | 40.5 ± 25.8 |  |  |  |  |  |
| Pro Gln Asn Phe (PQNF; printed: Pro Gln Asn Phe) [CMS034] | 1.5 ± 0.2 |  | enhance |  | enhance | 50.8 ± 18.4*^$ | 43.0 ± 11.7*^$ | 30.2 ± 10.9 |  |  |  |  | 85 ± 10*^ IU |  |
| Pro Ser Ile Vat Gly Arg Pro Arg His Gln Gly Val Met (PSIVGRPRHQGVM; listed as Sus scrofa) [CMS015] |  |  | enhance |  | enhance |  |  |  |  |  | 1.9 ± 0.3*^@^ |  |  | 85 ± 17*^ IU |
| RVAPQQHPTL [CMS011] |  |  | enhance |  | enhance | 32.0 ± 14.7 |  |  | 34.4 ± 19.4 | 1.6 ± 0.4 |  |  | 101 ± 19*^@^ IU |  |
| Tyr Ser Leu (YSL; listed as Sus scrofa) [CMS024] |  |  |  |  |  | 43.0 ± 10.7*^$ | 42.2 ± 11.8*^$ | 27.8 ± 9.1 | 30.1 ± 10.0 |  |  |  |  |  |
| Tyr Ser Phe (YSF; listed as Sus scrofa) [CMS022] |  |  |  |  | enhance |  |  |  |  |  |  |  | 109 ± 14*^@^ IU |  |
| VAPEEHPTLLTEAPLNPK [CMS010] |  |  | enhance |  | enhance | 34.9 ± 10.5*^$ | 51.0 ± 14.6*^$ | 39.6 ± 7.7*^$ | 50.1 ± 16.7*^$ | 1.7 ± 0.3 | 2.0 ± 0.3*^@^ |  | 66 ± 11 IU | 125 ± 17*^@^ IU |
| VGMGQKDSY |  |  | enhance |  |  | 42.0 ± 12.0*^$ | 35.4 ± 15.1*^$ | 28.3 ± 7.6 |  |  | 1.8 ± 0.3 |  |  |  |
| VGMGQKDSYV [CMS020] |  |  |  |  | enhance |  |  |  |  |  |  | 63 ± 11 |  |  |
